According to patent US8329705B2, “Substituted triazolo-pyrazine compounds” (ArQule, Inc., priority 2009, dated 2012):

How the values were obtained:
MDA-MB-231 cancer cells = assay: MTS assay, MDA-MB-231 cells; type: cell-based; parameters: concentration or dose not given beside the values
Method: (§1) Cells were maintained at 37° C., 5% CO2 in DMEM media supplemented with 1% fetal bovine serum, penicillin/streptomycin and fungizone (Invitrogen). Cells were seeded into 96-well tissue culture plates at 3000 per well and cultured at 37° C. for 18 hours. Test compounds were dissolved and diluted to 300× in DMSO then diluted 1:40 in DMEM. Cells were incubated with test compounds for 72 hours followed by incubation with tetrazolium compound (3-(4,5-dimethylthiazol-2-yl)-5-(3-carboxymethoxyphenyl)-2-(4-sulfophenyl)-2H-tetrazolium, inner salt; MTS) and the electron coupling reagent, phenazine methosulfate (PMS) for 4 hours. […] The ability of compounds to inhibit cell growth in this assay is correlated with the reduction of dehydrogenase enzyme activity found in metabolically active cells. The measurement of the absorbance of the formazan was assessed using a Victor (Perkin Elmer) microplate reader at 492 nm. The calculated IC50 value is the concentration of the test compound that causes a 50% decrease in the absorbance. Percent inhibition by representative compounds of the present invention in MDA-MB231 and DLD-1 cancer cells is shown in Table 4.

FGFR2 (N549H) = biological target: T1, FGFR2 (N549H) (Homo sapiens, UniProt P21802, N549H); assay: FGFR2 kinase activity assay (fluorescent ELISA); type: biochemical; conditions: 30 μM compound
T1 construct: purchased Millipore 14-742
T1 sequence (P21802 22-821 N549H): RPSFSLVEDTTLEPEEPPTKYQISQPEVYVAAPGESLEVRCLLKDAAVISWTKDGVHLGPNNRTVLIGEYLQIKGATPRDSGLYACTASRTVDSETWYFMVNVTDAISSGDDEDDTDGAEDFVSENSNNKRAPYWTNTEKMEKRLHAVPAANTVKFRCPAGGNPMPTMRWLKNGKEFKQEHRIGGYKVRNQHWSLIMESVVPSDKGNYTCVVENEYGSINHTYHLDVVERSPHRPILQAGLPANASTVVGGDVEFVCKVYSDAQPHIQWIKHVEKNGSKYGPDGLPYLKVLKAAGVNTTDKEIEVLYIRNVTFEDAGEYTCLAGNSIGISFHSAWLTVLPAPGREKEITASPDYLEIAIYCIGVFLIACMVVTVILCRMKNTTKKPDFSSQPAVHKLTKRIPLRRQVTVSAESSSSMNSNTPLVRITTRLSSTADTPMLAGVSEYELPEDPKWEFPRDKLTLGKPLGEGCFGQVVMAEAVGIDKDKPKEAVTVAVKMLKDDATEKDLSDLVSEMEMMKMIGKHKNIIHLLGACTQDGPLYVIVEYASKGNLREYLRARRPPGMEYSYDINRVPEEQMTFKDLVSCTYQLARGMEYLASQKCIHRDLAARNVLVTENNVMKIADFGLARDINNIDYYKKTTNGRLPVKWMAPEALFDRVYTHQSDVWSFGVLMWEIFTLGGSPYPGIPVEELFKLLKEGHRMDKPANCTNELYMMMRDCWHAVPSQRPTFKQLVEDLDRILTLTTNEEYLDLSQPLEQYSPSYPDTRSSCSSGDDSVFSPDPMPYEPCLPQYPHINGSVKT

DLD-1 cancer cells = assay: MTS assay, DLD-1 cells; type: cell-based; parameters: concentration or dose not given beside the values
Method: as §1

Structure (SMILES)	inhibition at 30 µM (FGFR2 (N549H)) [%]	MDA-MB-231, MTS, 72 hours (% inhibition) (MDA-MB-231 cancer cells) [%]	DLD-1, MTS, 72 hours (% Inhibition) (DLD-1 cancer cells) [%]
CC(C)OC(=O)Nc1nnc2c(N3CCC(n4c(=O)[nH]c5cc(Cl)ccc54)CC3)nccn12 [Compound 82, isopropyl {8-[4-(5-chloro-2-oxo-2,3-dihydro-1H-benzimidazol-1-yl)piperidin-1-yl][1,2,4]triazolo[4,3-a]pyrazin-3-yl}carbamate]	65.2	92	97
CC(C)OC(=O)Nc1nnc2c(NCc3cccc(F)c3)nccn12 [Compound 86, isopropyl {8-[(3-fluorobenzyl)amino][1,2,4]triazolo[4,3-a]pyrazin-3-yl}carbamate]	88.8	98	97
Cc1ccc(CCNc2nccn3c(N)nnc23)cc1 [Compound 90, N^8-[2-(4-methylphenyl)ethyl][1,2,4]triazolo[4,3-a]pyrazine-3,8-diamine]	60.8	81	89
Nc1nnc2c(NCCc3ccc(Oc4ccccc4)cc3)nccn12 [Compound 93, N^8-[2-(4-phenoxyphenyl)ethyl][1,2,4]triazolo[4,3-a]pyrazine-3,8-diamine]	82.9	99	98

Continued, in another order:

inhibition at 30 µM (FGFR2 (N549H)) [%]	Structure (SMILES)	MDA-MB-231, MTS, 72 hours (% inhibition) (MDA-MB-231 cancer cells) [%]	DLD-1, MTS, 72 hours (% Inhibition) (DLD-1 cancer cells) [%]
71.6	Nc1nnc2c(NCCc3ccc(Cl)cc3)nccn12 [Compound 115, N^8-[2-(4-chlorophenyl)ethyl][1,2,4]triazolo[4,3-a]pyrazine-3,8-diamine]	99	98
54.6	Cc1ccccc1Nc1nccn2c(N)nnc12 [Compound 157, N^8-(2-methylphenyl)[1,2,4]triazolo[4,3-a]pyrazine-3,8-diamine]	98	97
68.6	Nc1nnc2c(Nc3cc(Cl)ccc3Cl)nccn12 [Compound 160, N^8-(2,5-dichlorophenyl)[1,2,4]triazolo[4,3-a]pyrazine-3,8-diamine]	81	53
